Marks after values point to notes of the source that are not given here.
Tests used:
[1] = Lipophilicity, octanol-water partition coefficient by shake flask method; format: physicochemical; details: 22° C., P=log Ax/(A0−Ax)
Procedure: Lipophilicity of the identified EGCG derivatives was determined as octanol-water partition coefficient (P) by a shake flask method. Briefly, a flask containing a mixture of octanol (100 ml) and deionized water (100 ml) was shaken in a shaking waterbath at room temperature (22° C.) for 24 hours. The content was then allowed to stand for 24 hours for separation into two phases. Test compounds (0.2 μmol) were dissolved in 5 ml of the upper phase (pre-saturated octanol), and the absorbance (A0) was read at 280 nm. A blank with no sample was prepared. Five milliliters of the bottom phase (pre-saturated water) were added afterwards, and the mixtures were vortexed for 1 min and allowed to stand for 24 hours for separation. Absorbance (Ax) of the upper phase in the vials was measured and octanol-water partition coefficient (P) calculated using the following equation: P=log Ax/(A0−Ax), where blank-corrected absorbance was used.

[2] = DPPH radical scavenging capacity by EPR; details: test compounds 25 μM in ethanol, EPR after 1 min
Procedure: (§1) An ORAC (Oxygen Radical Absorbance Capacity) assay was carried out using a Fluostar Optima plate reader (BMG Labtech, Durham, N.C.) equipped with an incubator and two injector pumps. A modified method for lipophilic antioxidants was followed, in which randomly methylated cyclodextrin (RMCD) was used as water solubility enhancer, as described by Huang et al, J. Agric. Food Chem., 2002, 50, 1815-1821. Trolox standards (6.25-50 μM) and samples (0.25 μM) were dissolved in acetone/water (1:1, v/v) containing 7% RMCD. Fluorescein and […] [2,2′-azobis(2-aminopropane)dihydrochloride] were used as the probe and radical generator, respectively. Twenty microliters of trolox standard or test compound solutions (7% RMCD used as a control) were added into each well of a 96-well black microplate, followed by addition of fluorescein. The plate was incubated at 37° C. for 15 min and then AAPH in buffer was injected into the wells. The conditions used were as follows: 0.3 s position delay, 8 s orbital shaking before each cycle with 4 mm width, 210 s cycle time, and 25 cycles. Fluorescence was measured at an excitation wavelength of 485 nm and emission of 520 nm. A standard curve was plotted and ORAC values for test compounds were obtained as mol of trolox equivalents (TE) per mol of test compound. (3b) Reducing Power The reducing power of EGCG and its derivatives (compounds 1a-1c) was determined according to Oyaizu (1986). One milliliter of test compounds (1 mM in 95% ethanol) was mixed with 2.5 ml of phosphate buffer solution (PBS, 0.2 M, pH 6.6) and 2.5 ml of a 1% solution of potassium ferricyanide, K3Fe(CN)6. The mixture was incubated at 50° C. for 20 min. […] The content was mixed well and the absorbance was recorded at 700 nm. Higher absorbance of the reaction mixture indicates greater reducing power. […] (3c) Metal Chelation The metal chelation capacity was measured following a procedure by Decker E. A. et al., J. Agric. […] The absorbance was measured afterwards at 562 nm. A blank without ferrozine was run for each compound, since the antioxidant-Fe^2+ complex gives a colour that might interfere with the absorbance reading. Metal chelation capacity was calculated using the following equation: % chelation=[1−(Abs.sample−Abs.blank)/Abs.control]×100 where, control was devoid of test compounds, while blank contained no ferrozine. (3d) DPPH Antioxidant activity of the lipophilic EGCG derivatives was ALSO evaluated as DPPH (1,1-diphenyl-2-picrylhydrazyl) radical scavenging capacity using EGCG as the reference. DPPH scavenging capacity of test compounds was determined by EPR (electron paramagnetic resonance) according to Madhujith and Shahidi (16) with slight modifications. […] The spectrum was recorded after 1 min. […]

[3] = TBARS formation in cooked pork model system; details: 80 μmol/kg meat, stored at 4° C.
Procedure: Fresh ground pork (40 g) was mixed with deionized water (10 g) in a Mason jar. Samples and reference antioxidant compound (BHA) dissolved in ethanol were added to meat at a level of 80 μmol/kg. A control without any antioxidant was also prepared. The content was thoroughly mixed and cooked at 80° C. in a thermostated water bath for 40 min with intermittent stirring. The cooked meat was cooled to room temperature and homogenized with a Polytron PT 3000 (Brinkmann Instruments, Rexdale, ON) homogenizer. The homogenate was then transferred into plastic bags and stored at 4° C. for 14 days. […].
TBARS values were determined as described by Shahidi and Hong (Shahidi, F. and Hong, C. Evaluation of malonaldehyde as a marker of oxidative rancidity in meat products. J. Food Biochem. 15, 97-105, 1991).
A series of TMP (1,1,3,3-tetramethoxypropane) standard solutions at difference concentrations was mixed with thiobarbituric acid (TBA) in screw-capped tubes and heated in a boiling water bath for 45 min. After cooling on ice, the absorbance was recorded at 532 nm and a standard curve was constructed (absorbance versus concentration). For TBARS in the cooked meat model system, 2 g of meat were mixed with 5 ml of trichloroacetic acid (TCA, 10% w/v) in a centrifuge tube, followed by addition of 5 ml of TBA reagent. The mixture was centrifuged at 3000×g for 10 min and the supernatant was filtered. The filtrate was heated in a boiling water bath for 45 min and absorbance was measured at 532 nm after cooling to room temperature. TBARS values in meat samples were obtained using the standard curve as μmol malonaldehyde equivalents/kg of meat. Antioxidant activity was calculated as percentage inhibition of TBARS formation by test compounds.

[4] = ORAC (Oxygen Radical Absorbance Capacity) assay for lipophilic antioxidants; details: samples 0.25 μM, 7% RMCD, fluorescein probe
Procedure: as §1

[5] = Metal chelation capacity (ferrozine); details: test compounds 1 mM ethanolic solution, FeCl2, ferrozine
Procedure: as §1

Row | Lipophilicity (partition coefficient, P) [1] | SMILES | logP [1] | DPPH scavenging [2] [mmol trolox eq./mol] | Inhibition of TBARS formation in cooked pork [3] | ORAC [4] [mol trolox eq./mol] | Metal chelation [5] [%]
1 | – | CCCCCCCCCCCCCCCCCC(=O)Oc1cc(C(=O)OC2Cc3c(O)cc(O)cc3OC2c2cc(OC(=O)CCCCCCCCCCCCCCCCC)c(O)c(OC(=O)CCCCCCCCCCCCCCCCC)c2)cc(OC(=O)CCCCCCCCCCCCCCCCC)c1O (centres unmarked) [Compound 1a, EGCG stearate] | 1.42 ± 0.02 | 5.85 | 86.3 ± 2.10^a % | 51.56 | 8.33
2 | 1.10 ± 0.06 ^b | CCC=CCC=CCC=CCC=CCC=CCCCC(=O)Oc1cc(C(=O)OC2Cc3c(O)cc(O)cc3OC2c2cc(OC(=O)CCCC=CCC=CCC=CCC=CCC=CCC)c(O)c(OC(=O)CCCC=CCC=CCC=CCC=CCC=CCC)c2)cc(OC(=O)CCCC=CCC=CCC=CCC=CCC=CCC)c1O (centres unmarked) [Compound 1b] | – | 4.66 | 80.5 ± 0.80^bc % | 81.52 | 35.42
3 | 1.03 ± 0.10 ^b | CCC=CCC=CCC=CCC=CCC=CCC=CCCC(=O)Oc1cc(C(=O)OC2Cc3c(O)cc(O)cc3OC2c2cc(OC(=O)CCC=CCC=CCC=CCC=CCC=CCC=CCC)c(O)c(OC(=O)CCC=CCC=CCC=CCC=CCC=CCC=CCC)c2)cc(OC(=O)CCC=CCC=CCC=CCC=CCC=CCC=CCC)c1O (centres unmarked) [Compound 1c] | – | 5.09 | 78.4 ± 1.62^c % | 84.70 | 28.13
4 | – | O=C(O[C@@H]1Cc2c(O)cc(O)cc2O[C@@H]1c1cc(O)c(O)c(O)c1)c1cc(O)c(O)c(O)c1 [EGCG, Epigallocatechin gallate, reference compound] | 0.48 ± 0.01 | 3.13 | 71.9 ± 1.56^d % | 14.97 | 10.42

Reference: US9018248B2, “Fatty acid derivatives of catechins and methods of their use” (Genesis Group Inc., priority 2010, dated 2015)
